From patent US20250387360A1, “Methods and Compositions for Treatment of Addiction” (University of Connecticut, priority 2024, published 2025)
“Also recorded” adds a separate entry of the source.

How the values were obtained:
Assay type in all cases: in vivo, mouse
[1] = Daily body weight, food and fluid intake monitoring; details: 10-day supplementation
Excerpt: Male C57BL/6J mice, (RRID: IMSR_JAX: 000664), aged 6-8 weeks, were obtained from Jackson Laboratories (ME, U.S.A) for the study. The mice were housed individually under a reversed 12-hours light/dark cycle, with lights off from […] to 7:00 am. A minimum acclimation period of 2 weeks was provided for all animals before they were randomly assigned to their respective groups. Mice had free access to food (Irradiated chow, Teklad global 18% protein rodent diet, 2918, Inotiv, WI, U.S.A) and deionized water to acclimate to the testing environment. Body weight and daily food and fluid intake were monitored and noted for all animal experiments.
The food intake was assessed by providing a pre-weighed amount of food in their cage hopper and then weighing the remaining food inside the cage and in the hopper daily. To assess daily fluid intake, the sodium valerate and NaCl bottles were pre-weighed, and the remaining amount was deducted after the measurement period. Food and fluid intakes were normalized to mouse body weight by dividing the average intake by the average body weight.

male mice (C57BL/6J) = assay: Six-week repeated DID protocol
Description: In this study, the impact of sodium valerate treatment on ethanol intake and blood ethanol concentration (BEC) was assessed using a six-week Drinking in the Dark (DID) protocol in male mice (C57BL/6J). All mice (n=30) were single-housed and had ad libitum access to food and their respective drinking water. Water bottles were removed 30 minutes prior to and throughout each DID session. During the two-week baseline period, all mice underwent a standardized DID paradigm consisting of a 4-day cycle each week: 2-hour access to 20% ethanol on days 1-3, followed by a 4-hour session on day 4. Starting in week three, mice were randomly assigned to one of three groups (10 mice per group): (1) Valerate-i.p., which received intraperitoneal injections of sodium valerate (200 mg/kg body weight) 30 minutes before each DID session; (2) Valerate-drinking water, which received 200 mM sodium valerate in drinking water for 30 minutes before to each DID session; and (3) Control, which received no valerate treatment. Ethanol consumption was evaluated on day 4 of each week (Wecks 1-6), and BEC was measured on day 4 of weeks 2, 4, and 6.

GABA levels = assay: GABA ELISA in stool, amygdala and plasma after DID; details: 10 days supplementation following DID, vs NaCl
Description: GABA levels in plasma, stool, and amygdala samples were determined using an ELISA kit (LDN, Labor Diagnostika Nord, Nordhorn, Germany) following the manufacturer's instructions. Plasma samples were used directly without any additional preparation. For stool and amygdala, samples, they were first thawed and then homogenized in a solution consisting of 0.01N HCl (Thermo Fisher Scientific, MA, U.S.A), ImM EDTA (Thermo Fisher Scientific, MA, U.S.A), and 4 mM sodium metabisulfite (Thermo Fisher Scientific, MA, U.S.A). After homogenization, the samples underwent centrifugation at 3000×g for 5 minutes at 4° C. before GABA estimation. To summarize the assay procedure, plasma, homogenized stool, and amygdala samples, and the kit's standards were all processed on an extraction plate. They were subsequently derivatized using an equalizing reagent and subjected to a standard competitive ELISA conducted in GABA-coated 96-well microtiter strips. The optical density (OD) of the solution within the wells was rapidly read at 450 nm using a 96-well plate reader (iMark™ Microplate Absorbance Reader; Biorad, CA, U.S.A, RRID:SCR_023799). The OD data was employed to determine the GABA concentration via a standard curve.
The levels of GABA in the amygdala were measured next, stool, and blood of the mice that underwent the DID paradigm, comparing those supplemented with sodium valerate to those supplemented with NaCl.

male C57BL/6J mice = assay: Intermittent-access 20% ethanol two-bottle-choice drinking
Description: Twenty male C57BL/6J mice were given access to 20% ethanol for three 24-hour sessions per week. On the first Monday, Wednesday, and Friday, mice were offered increasing concentrations of ethanol (3%, 6%, and 10% w/v, respectively) in one bottle, with water in a second bottle, to acclimate them to ethanol consumption. After this acclimation, mice received one bottle of 20% ethanol and one bottle of water every Monday, Wednesday, and Friday for 24 hours. To minimize side bias, the position of the bottles in the cage was alternated between sessions.
For the first 8 weeks, mice received intraperitoneal (i.p.) injections of phosphate-buffered saline (PBS) 30 minutes prior to each ethanol session to establish stable ethanol consumption (g/kg) and ethanol preference (ethanol intake as a proportion of total fluid intake). In the following 4 weeks (12 sessions), mice were randomly assigned to receive i.p. injections of either sodium valerate or sodium chloride (NaCl) at a dose of 600 mg/kg, 30 minutes before each ethanol session (n=10 per group). Ethanol and water consumption, as well as ethanol preference, were measured throughout the study to assess the effects of sodium valerate on ethanol drinking behavior compared to the NaCl control. After each 24-hour access period, the ethanol and water bottles were weighed, and mouse body weights were recorded to calculate ethanol intake (g/kg/24 hours) and water intake (mL/kg/24 hours). Ethanol preference was calculated as the ratio of ethanol intake to total fluid intake.

Question: With `CCCCC(=O)[O-].[Na+]` [sodium valerate] as the compound, how does the “body weight vs NaCl group” value ([1]; n=10 mice/group) read?
Answer: did not differ significantly; also recorded: did not affect

Question: And the “fluid intake (intake of sodium valerate and NaCl) vs NaCl group” value ([1]; n=14 mice/group)?
Answer: no statistical difference; also recorded: did not affect

Question: What about the “food consumption vs NaCl group” value ([1]; n=14 mice/group) of the same compound?
Answer: no statistical difference; also recorded: did not affect

Question: And the “ethanol consumption week 5, Valerate-drinking water” value (male mice (C57BL/6J); 200 mM in drinking water for 30 min before each DID session from week 3, n=10, p<0.05 vs control)?
Answer: significantly reduced

Question: And the “BEC week 6, Valerate-drinking water” value (male mice (C57BL/6J); 200 mM in drinking water for 30 min before each DID session, p<0.01 vs control)?
Answer: significant reductions

Question: And the “ethanol consumption week 5, Valerate-i.p.” value (male mice (C57BL/6J); 200 mg/kg i.p. 30 min before each DID session from week 3, n=10, p<0.01 vs control)?
Answer: significantly reduced

Question: And the “BEC week 6, Valerate-i.p.” value (male mice (C57BL/6J); 200 mg/kg i.p. 30 min before each DID session, p<0.01 vs control)?
Answer: significant reductions

Question: What about the “ethanol consumption week 6, Valerate-i.p.” value (male mice (C57BL/6J); 200 mg/kg i.p. 30 min before each DID session, p<0.1 vs control) of the same compound?
Answer: trend toward reduced ethanol consumption

Question: What about the “effects during the initial weeks of treatment” value (male mice (C57BL/6J); both valerate groups) of the same compound?
Answer: no significant effects

Question: And the “GABA levels in plasma” value (GABA levels; n=6 mice/group)?
Answer: not significant

Question: What about the “GABA levels in stool” value (GABA levels; p=0.0001) of the same compound?
Answer: elevated

Question: And the “GABA levels in the amygdala” value (GABA levels; p=0.01)?
Answer: elevated

Question: What about the “ethanol consumption, week 11” value (male C57BL/6J mice; 600 mg/kg i.p. 30 min before each session, n=10, baseline 24.38±4.19, p<0.001) of the same compound?
Answer: 15.47±1.49 g/kg/24 hours

Question: What about the “ethanol preference, week 11” value (male C57BL/6J mice; 600 mg/kg i.p. 30 min before each session, n=10, baseline 66.81±4.8%, p<0.01) of the same compound?
Answer: 54.26±4.5%

Question: What about the “ethanol intake, week 12” value (male C57BL/6J mice; 600 mg/kg i.p. 30 min before each session, n=10, p<0.001 vs baseline) of the same compound?
Answer: 13.42±1.60 g/kg/24 hours

Question: And the “ethanol preference, week 12” value (male C57BL/6J mice; 600 mg/kg i.p. 30 min before each session, n=10, p<0.01 vs baseline)?
Answer: 52.06±3.92%

Question: And the “ethanol consumption compared to the NaCl control group” value (male C57BL/6J mice; 600 mg/kg i.p., weeks 11 and 12, p<0.001 for both weeks)?
Answer: significantly lower

Question: What about the “ethanol preference compared to the NaCl control group” value (male C57BL/6J mice; 600 mg/kg i.p., weeks 11 and 12, p<0.01 for both weeks) of the same compound?
Answer: significantly lower
